Reference: PubChem BioAssay AID248 (DTP/NCI, 2004)
Where “and” joins values, the source holds several entries; their conditions need not be identical. Equal values may be shown once. Inconclusive results and toxic doses are left out. Cut-off read from the data, not from the text of the source: active = T/C of 150% or more; inactive = T/C below 125%.

Tested on: L1210 leukemia ip in BDF1 mice, survival T/C
Assay: NCI In Vivo Anticancer Drug Screen. Data for tumor model L1210 Leukemia (intraperitoneal) in B6D2F1 (BDF1) mice
Conditions: endpoint: mean survival time, higher = longer survival
Procedure, shortened: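 Survival endpoint. Drug-treated group vs vehicle group, expressed as T divided by C. Tumor passaged by transplantation.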

[1] = dose: 100.0 mg/kg/injection, schedule: Q01DX009 (ip), vehicle: saline
[2] = dose: 200.0 mg/kg/injection, schedule: Q01DX009 (ip), vehicle: saline
[3] = dose: 100.0 mg/kg/injection, schedule: Q04DX003 (ip), vehicle: Klucel (hydroxypropylcellulose) (HPC)
[4] = dose: 200.0 mg/kg/injection, schedule: Q04DX003 (ip), vehicle: Klucel (hydroxypropylcellulose) (HPC)
[5] = dose: 400.0 mg/kg/injection, schedule: Q04DX003 (ip), vehicle: Klucel (hydroxypropylcellulose) (HPC)
[6] = dose: 100.0 mg/kg/injection, schedule: Q01DX001 (ip), vehicle: other
[7] = dose: 200.0 mg/kg/injection, schedule: Q01DX001 (ip), vehicle: other
[8] = dose: 400.0 mg/kg/injection, schedule: Q01DX001 (ip), vehicle: other
[9] = dose: 100.0 mg/kg/injection, schedule: Q04DX003 (ip), vehicle: saline with Tween-80
[10] = dose: 200.0 mg/kg/injection, schedule: Q04DX003 (ip), vehicle: saline with Tween-80
[11] = dose: 400.0 mg/kg/injection, schedule: Q04DX003 (ip), vehicle: saline with Tween-80
[12] = dose: 50.0 mg/kg/injection, schedule: Q01DX009 (ip), vehicle: saline with Tween-80
[13] = dose: 100.0 mg/kg/injection, schedule: Q01DX009 (ip), vehicle: saline with Tween-80
[14] = dose: 200.0 mg/kg/injection, schedule: Q01DX009 (ip), vehicle: saline with Tween-80
[15] = dose: 100.0 mg/kg/injection, schedule: Q01DX001 (ip), vehicle: saline
[16] = dose: 200.0 mg/kg/injection, schedule: Q01DX001 (ip), vehicle: saline
[17] = dose: 400.0 mg/kg/injection, schedule: Q01DX001 (ip), vehicle: saline
[18] = dose: 50.0 mg/kg/injection, schedule: Q01DX001 (ip), vehicle: saline
[19] = dose: 75.0 mg/kg/injection, schedule: Q01DX001 (ip), vehicle: saline
[20] = dose: 150.0 mg/kg/injection, schedule: Q01DX001 (ip), vehicle: saline
[21] = dose: 100.0 mg/kg/injection, schedule: Q01DX001 (ip), vehicle: Klucel (hydroxypropylcellulose) (HPC)
[22] = dose: 50.0 mg/kg/injection, schedule: Q01DX001 (ip), vehicle: carboxymethylcellulose (CMC)
[23] = dose: 100.0 mg/kg/injection, schedule: Q01DX001 (ip), vehicle: carboxymethylcellulose (CMC)
[24] = dose: 12.5 mg/kg/injection, schedule: Q01DX009 (ip), vehicle: saline with Tween-80
[25] = dose: 25.0 mg/kg/injection, schedule: Q01DX009 (ip), vehicle: saline with Tween-80
[26] = dose: 400.0 mg/kg/injection, schedule: Q01DX009 (ip), vehicle: saline with Tween-80

Measured: T/C

Cc1ccc(CC#N)c(-c2c(CC#N)ccc(C)c2C)c1C
inactive: dose: 100.0 mg/kg/injection, schedule: Q04DX002 (ip), vehicle: gum acacia 87 % of control | dose: 200.0 mg/kg/injection, schedule: Q04DX002 (ip), vehicle: gum acacia 93 % of control | dose: 400.0 mg/kg/injection, schedule: Q04DX002 (ip), vehicle: gum acacia 93 % of control

CC(=O)Nc1ccc(Cl)cc1C(=O)c1ccc[nH]1
inactive: dose: 50.0 mg/kg/injection, schedule: Q01DX009 (ip), vehicle: saline 110 % of control | [1] 104 % of control | dose: 100.0 mg/kg/injection, schedule: Q04DX003 (ip), vehicle: saline 106 % of control | [2] 103 % of control | dose: 200.0 mg/kg/injection, schedule: Q04DX003 (ip), vehicle: saline 108 % of control | dose: 400.0 mg/kg/injection, schedule: Q01DX009 (ip), vehicle: saline 98 % of control | dose: 400.0 mg/kg/injection, schedule: Q04DX003 (ip), vehicle: saline 93 % of control

CCOC(=O)CCC(NC(=O)c1c(Cl)cc(N(C)S(=O)(=O)c2ccc(C)cc2)cc1Cl)C(=O)OCC (centres undefined)
inactive: [3] 105 % of control | [4] 97 % of control | [5] 97 % of control

C=C(C)C#CC(O)(C(=O)OCC)C1CCCCC1 (centres undefined)
inactive: [6] 98 % of control | [7] 109 % of control | [8] 102 % of control

Cc1ccc(S(=O)(=O)OCCCOS(=O)(=O)c2ccc(C)cc2)cc1
inactive: [9] 96 % of control | [10] 102 % of control | [11] 98 % of control

COc1ccccc1CC(C)(C)O
inactive: [12] 98 % of control | [13] 95 % of control | [14] 101 % of control

CCOC(=O)CCC(N)C(=O)OCC (centres undefined)
inactive: [15] 95 % of control and 91 % of control | [1] 96 % of control | [16] 91 % of control | [2] 88 % of control | [17] 98 % of control and 86 % of control

N=c1c2ncn(C3OC(CO)C(O)C3O)c2ncn1O (centres undefined)
inactive: [18] 101 % of control | [19] 111 % of control | [15] 103 % of control | [20] 105 % of control

CCCCOC(=O)C1(C)OC1c1ccccc1 (centres undefined)
inactive: dose: 100.0 mg/kg/injection, schedule: Q04DX002 (ip), vehicle: saline 101 % of control | dose: 200.0 mg/kg/injection, schedule: Q04DX002 (ip), vehicle: saline 89 % of control | dose: 400.0 mg/kg/injection, schedule: Q04DX002 (ip), vehicle: saline 101 % of control

CN(C)CC1(C)CCc2c(ccc3ccccc23)C1O (centres undefined)
inactive: [21] 94 % of control

CC(NNC(c1ccccc1)(c1ccccc1)c1ccccc1)c1ccccc1I (centres undefined)
inactive: dose: 100.0 mg/kg/injection, schedule: Q04DX002 (ip), vehicle: saline with Tween-80 93 % of control | dose: 200.0 mg/kg/injection, schedule: Q04DX002 (ip), vehicle: saline with Tween-80 95 % of control | dose: 400.0 mg/kg/injection, schedule: Q04DX002 (ip), vehicle: saline with Tween-80 97 % of control

CC(C)C1(NC(=O)C2C=C3c4cccc5[nH]cc(c45)CC3N(C)C2)OC2(O)C3CCCN3C(=O)C(Cc3ccccc3)N2C1=O (centres undefined)
inactive: [22] 93 % of control | dose: 50.0 mg/kg/injection, schedule: Q01DX001 (ip), vehicle: other 93 % of control | [23] 98 % of control | [6] 88 % of control | [15] 102 % of control | [7] 93 % of control | [16] 96 % of control and 89 % of control | [8] 96 % of control

CC(=O)Oc1ccc(N(CCCl)CCCl)cc1OC(C)=O
inactive: dose: 150.0 mg/kg/injection, schedule: Q01DX001 (ip), vehicle: other 98 % of control

CSC(=O)N=Nc1c(O)n(C)c(=O)n(C)c1=O
inactive: [24] 104 % of control | [25] 97 % of control | [12] 97 % of control and 87 % of control

[B-][N+](C)(C)C
inactive: dose: 3.13 mg/kg/injection, schedule: Q01DX001 (ip), vehicle: Klucel (hydroxypropylcellulose) (HPC) 99 % of control | dose: 6.25 mg/kg/injection, schedule: Q01DX001 (ip), vehicle: Klucel (hydroxypropylcellulose) (HPC) 101 % of control | dose: 12.5 mg/kg/injection, schedule: Q01DX001 (ip), vehicle: Klucel (hydroxypropylcellulose) (HPC) 99 % of control | dose: 25.0 mg/kg/injection, schedule: Q01DX001 (ip), vehicle: Klucel (hydroxypropylcellulose) (HPC) 106 % of control | dose: 50.0 mg/kg/injection, schedule: Q01DX001 (ip), vehicle: Klucel (hydroxypropylcellulose) (HPC) 109 % of control | [21] 103 % of control

COc1ccc(OC)c(NC(=S)N/N=C/c2cccc3ccccc23)c1
inactive: [13] 100 % of control | [14] 95 % of control | [26] 100 % of control

COc1cccc(/C=N\NC(=O)CNC(=O)Nc2ccc(Cl)c(Cl)c2)c1OC
inactive: [12] 93 % of control | [13] 93 % of control | [14] 86 % of control

Cc1ccc(N2CCN(Cc3ccc4ccccc4c3)CC2)cc1
inactive: [9] 102 % of control | [10] 94 % of control | [11] 100 % of control

Cc1cc(O)cc(C)c1Cl
inactive: [13] 91 % of control | [9] 92 % of control | [14] 92 % of control | [10] 96 % of control | [26] 89 % of control | [11] 96 % of control

Cc1ccc(-n2c(O)c(N=Nc3ccc(Cl)cc3)c(=O)n(-c3ccccc3)c2=S)cc1
inactive: dose: 37.5 mg/kg/injection, schedule: Q01DX001 (ip), vehicle: Klucel (hydroxypropylcellulose) (HPC) 96 % of control | dose: 75.0 mg/kg/injection, schedule: Q01DX001 (ip), vehicle: Klucel (hydroxypropylcellulose) (HPC) 92 % of control | dose: 150.0 mg/kg/injection, schedule: Q01DX001 (ip), vehicle: Klucel (hydroxypropylcellulose) (HPC) 102 % of control

O=C(COc1ccc(Cl)c(Cl)c1)Nc1ccc[n+](Cc2cccc([N+](=O)[O-])c2)c1
inactive: [21] 95 % of control | dose: 200.0 mg/kg/injection, schedule: Q01DX001 (ip), vehicle: Klucel (hydroxypropylcellulose) (HPC) 94 % of control | dose: 400.0 mg/kg/injection, schedule: Q01DX001 (ip), vehicle: Klucel (hydroxypropylcellulose) (HPC) 94 % of control

NNc1ncnc(SCc2ccccc2)c1N
inactive: [22] 93 % of control | [23] 98 % of control | dose: 200.0 mg/kg/injection, schedule: Q01DX001 (ip), vehicle: carboxymethylcellulose (CMC) 89 % of control | dose: 400.0 mg/kg/injection, schedule: Q01DX001 (ip), vehicle: carboxymethylcellulose (CMC) 89 % of control

O=C1Nc2ccccc2C1(O)c1ccccc1 (centres undefined)
inactive: [19] 103 % of control | [20] 101 % of control | dose: 300.0 mg/kg/injection, schedule: Q01DX001 (ip), vehicle: saline 92 % of control

O=S(=O)(F)c1cc(C[P+](c2ccccc2)(c2ccccc2)c2ccccc2)ccc1Cl
inactive: dose: 6.25 mg/kg/injection, schedule: Q01DX009 (ip), vehicle: saline with Tween-80 105 % of control | [24] 102 % of control | [25] 103 % of control

O=C1NC(O)C(O)N1 (centres undefined)
inactive: dose: 100.0 mg/kg/injection, schedule: Q01DX009 (ip), vehicle: Klucel (hydroxypropylcellulose) (HPC) 104 % of control | [3] 100 % of control | dose: 200.0 mg/kg/injection, schedule: Q01DX009 (ip), vehicle: Klucel (hydroxypropylcellulose) (HPC) 96 % of control | [4] 96 % of control | dose: 400.0 mg/kg/injection, schedule: Q01DX009 (ip), vehicle: Klucel (hydroxypropylcellulose) (HPC) 105 % of control | [5] 100 % of control

CC(C)C(NC(=O)NCCCl)c1ccccc1 (centres undefined)
inactive: [3] 88 % of control | [4] 88 % of control

N#Cc1ccccc1CC(O)(c1ccccc1)c1ccccc1
inactive: [18] 96 % of control | [15] 102 % of control | [16] 93 % of control | [17] 91 % of control
